Test: mn = molality of the nth substance listed, in mol/kg
Conditions: for electrical conductivity: 100 kPa, Liquid, CyberScan CON1500 Bench Conductivity Meter; for surface tension liquid-gas: 298.2 K, Ring tensiometer

CCCCCCCCCCCCn1cc[n+](C)c1.[Br-] [1-dodecyl-3-methylimidazolium bromide] + O
electrical conductivity [S/m]
Conditions | 288.15 K | 293.15 K | 298.15 K | 303.15 K
m1 = 0.001 | 0.00769 | 0.00898 | 0.01 | 0.0112
m1 = 0.002 | 0.0157 | 0.0181 | 0.0198 | 0.0223
m1 = 0.003 | 0.0224 | 0.0261 | 0.029 | 0.032
m1 = 0.004 | 0.0302 | 0.0345 | 0.0386 | 0.0427
m1 = 0.005 | 0.0379 | 0.043 | 0.048 | 0.0519
m1 = 0.006 | 0.0445 | 0.0504 | 0.0563 | 0.0626
m1 = 0.007 | 0.052 | 0.0589 | 0.0655 | 0.0728
m1 = 0.008 | 0.0589 | 0.0664 | 0.0741 | 0.0824
m1 = 0.009 | 0.0657 | 0.074 | 0.0823 | 0.0916
m1 = 0.01 | 0.0717 | 0.0814 | 0.0909 | 0.101
m1 = 0.011 | 0.0758 | 0.0853 | 0.0963 | 0.107
m1 = 0.012 | 0.0776 | 0.0876 | 0.0986 | 0.111
m1 = 0.013 | 0.0799 | 0.0907 | 0.102 | 0.116
m1 = 0.014 | 0.0814 | 0.0922 | 0.104 | 0.118
m1 = 0.015 | 0.0837 | 0.0947 | 0.107 | 0.122
m1 = 0.016 | 0.0854 | 0.0966 | 0.11 | 0.124
m1 = 0.017 | 0.0874 | 0.0986 | 0.112 | 0.127
m1 = 0.018 | 0.0882 | 0.0998 | 0.113 | 0.129
m1 = 0.019 | 0.0893 | 0.101 | 0.115 | 0.131
m1 = 0.02 | 0.0913 | 0.104 | 0.118 | 0.134
m1 = 0.021 | 0.0923 | 0.106 | 0.12 | 0.136
m1 = 0.022 | 0.0935 | 0.107 | 0.122 | 0.139
m1 = 0.023 | 0.0948 | 0.109 | 0.125 | 0.141
m1 = 0.024 | 0.0964 | 0.111 | 0.127 | 0.144
m1 = 0.025 | 0.0985 | 0.112 | 0.129 | 0.146

Conditions | surface tension liquid-gas [mN/m]
m1 = 0.0005 | 68.38
m1 = 0.001 | 62.44
m1 = 0.002 | 58.12
m1 = 0.004 | 51.39
m1 = 0.006 | 43.7
m1 = 0.008 | 40.35
m1 = 0.01 | 36.83
m1 = 0.012 | 36.51
m1 = 0.014 | 36.56
m1 = 0.016 | 36.65
m1 = 0.018 | 36.6
m1 = 0.02 | 36.57
m1 = 0.025 | 36.54
m1 = 0.03 | 36.48
m1 = 0.04 | 36.67
m1 = 0.05 | 36.67

CCCCCCCCCCCC[n+]1ccn(C)c1.[Cl-] [1-dodecyl-3-methylimidazolium chloride] + O
electrical conductivity [S/m]
Conditions | 288.15 K | 293.15 K | 298.15 K | 303.15 K
m1 = 0.001 | 0.00787 | 0.00877 | 0.00992 | 0.0109
m1 = 0.002 | 0.0149 | 0.0166 | 0.0187 | 0.0207
m1 = 0.003 | 0.0219 | 0.0245 | 0.0273 | 0.0304
m1 = 0.004 | 0.0289 | 0.0324 | 0.0367 | 0.0408
m1 = 0.005 | 0.0355 | 0.0401 | 0.0448 | 0.0503
m1 = 0.006 | 0.0433 | 0.0481 | 0.054 | 0.0598
m1 = 0.007 | 0.0491 | 0.0548 | 0.0617 | 0.0687
m1 = 0.008 | 0.0562 | 0.0637 | 0.071 | 0.0787
m1 = 0.009 | 0.0633 | 0.0711 | 0.0795 | 0.0885
m1 = 0.01 | 0.0688 | 0.0778 | 0.0871 | 0.0961
m1 = 0.011 | 0.0764 | 0.0861 | 0.0964 | 0.107
m1 = 0.012 | 0.0832 | 0.0934 | 0.105 | 0.117
m1 = 0.013 | 0.0886 | 0.0991 | 0.112 | 0.124
m1 = 0.014 | 0.095 | 0.106 | 0.118 | 0.132
m1 = 0.015 | 0.1 | 0.112 | 0.126 | 0.14
m1 = 0.016 | 0.105 | 0.117 | 0.131 | 0.145
m1 = 0.017 | 0.107 | 0.12 | 0.136 | 0.15
m1 = 0.018 | 0.111 | 0.125 | 0.14 | 0.155
m1 = 0.019 | 0.115 | 0.129 | 0.144 | 0.16
m1 = 0.02 | 0.117 | 0.132 | 0.146 | 0.165
m1 = 0.021 | 0.12 | 0.135 | 0.15 | 0.169
m1 = 0.022 | 0.122 | 0.137 | 0.154 | 0.173
m1 = 0.023 | 0.125 | 0.141 | 0.158 | 0.178
m1 = 0.024 | 0.128 | 0.144 | 0.162 | 0.181
m1 = 0.025 | 0.131 | 0.147 | 0.166 | 0.185

Conditions | surface tension liquid-gas [mN/m]
m1 = 0.001 | 69.37
m1 = 0.002 | 63.46
m1 = 0.004 | 58.36
m1 = 0.006 | 53.85
m1 = 0.01 | 47.71
m1 = 0.014 | 43.05
m1 = 0.018 | 38.43
m1 = 0.02 | 38.26
m1 = 0.025 | 38.38
m1 = 0.03 | 38.61
m1 = 0.04 | 38.35
m1 = 0.05 | 38.55

CCCCCCCCCCCCn1cc[n+](C)c1.[I-] [1-dodecyl-3-methylimidazolium iodide] + O
electrical conductivity [S/m]
Conditions | 288.15 K | 293.15 K | 298.15 K | 303.15 K
m1 = 0.0005 | 0.00423 | 0.00497 | 0.00565 | 0.00618
m1 = 0.001 | 0.00828 | 0.00961 | 0.0108 | 0.0118
m1 = 0.002 | 0.0151 | 0.017 | 0.0191 | 0.0211
m1 = 0.003 | 0.0227 | 0.0255 | 0.0287 | 0.0316
m1 = 0.004 | 0.0292 | 0.0332 | 0.0373 | 0.0413
m1 = 0.005 | 0.0334 | 0.0388 | 0.0452 | 0.0506
m1 = 0.006 | 0.036 | 0.0418 | 0.0483 | 0.0552
m1 = 0.007 | 0.0368 | 0.0432 | 0.05 | 0.0579
m1 = 0.008 | 0.0378 | 0.0444 | 0.0516 | 0.0595
m1 = 0.009 | 0.0393 | 0.0459 | 0.0532 | 0.0614
m1 = 0.01 | 0.04 | 0.047 | 0.0543 | 0.0634
m1 = 0.011 | 0.0412 | 0.0485 | 0.0558 | 0.0653
m1 = 0.012 | 0.042 | 0.0502 | 0.0576 | 0.0672
m1 = 0.013 | 0.0425 | 0.0508 | 0.0589 | 0.0687
m1 = 0.014 | 0.0441 | 0.0519 | 0.06 | 0.0699
m1 = 0.015 | 0.0448 | 0.0535 | 0.0616 | 0.0712
m1 = 0.016 | 0.0458 | 0.0542 | 0.0631 | 0.0728
m1 = 0.017 | 0.0471 | 0.0556 | 0.0645 | 0.0739
m1 = 0.018 | 0.0483 | 0.0568 | 0.066 | 0.0758
m1 = 0.019 | 0.0489 | 0.0574 | 0.0667 | 0.0774
m1 = 0.02 | 0.0496 | 0.0582 | 0.0677 | 0.0784

Conditions | surface tension liquid-gas [mN/m]
m1 = 0.0001 | 69.81
m1 = 0.0005 | 65.15
m1 = 0.001 | 56.7
m1 = 0.002 | 46.92
m1 = 0.003 | 38.08
m1 = 0.004 | 33.49
m1 = 0.005 | 31.45
m1 = 0.006 | 31.48
m1 = 0.007 | 31.39
m1 = 0.009 | 31.5
m1 = 0.012 | 31.6
m1 = 0.016 | 31.57
m1 = 0.02 | 31.66
